Reference: patent publication US20150133434A1, “Compositions and Methods for Reactivating Latent Immunodeficiency Virus” (priority 2012, published 2015)
Entries after “also recorded” stand apart in the source; their conditions may differ.

How the values were obtained:
[1] = tested on: latent HIV (clone R7/E-/GFP) in Jurkat T cells; experiment: Reactivation of latent HIV in polyclonal Jurkat T cells (clone R7/E-/GFP), flow cytometry of GFP; format: cell-based, HIV-1; conditions: compound alone, increasing amounts
Protocol: A polyclonal population of Jurkat T cells containing latent HIV (clone R7/E-/GFP) was treated with increasing amounts of JQ1. This viral clone contains a frameshift mutation in the viral Env gene to prevent viral spread and expresses GFP in the Nef open reading frame, which allows separation of actively infected GFP^+ from GFP^− cells by cell sorting. GFP^− cells, which are mostly uninfected but contain a small fraction of latently infected cells with silenced HIV transcription, were treated with JQ1. Activation of transcription was measured by flow cytometry of GFP. […] Stimulation of cells with JQ1 produced up to fivefold more GFP-expressing cells than control-treated cells.
HIV clones R7/E-/GFP and NL4-3/E-/GFP-IRES-nef were derived from pR7-GFP and pNLENG1-EGFP by mutating the Env gene by inserting an early stop codon in the NdeI site. […]. Jurkat cells were spininfected with 25 ng of p24 per 10^6 cells, and GFP^− cells where collected in two rounds of cell sorting 5 and 15 days after infection. The expanded population of GFP^− cells, composed of uninfected and latently infected cells, was seeded in 96-well plates and treated with the indicated concentration of drugs in duplicates. The percentage of GFP^+ cells was detected after 24 h at the MACSQuant VYB FACS analyzer. Data are expressed as the mean percentage of GFP^+ cells, subtracting the average percentage of spontaneous GFP-reactivation in the untreated samples. (A) Jurkat cells containing latent R7/E-/GFP virus were treated with JQ1 or (R)-JQ1 in combination with Prostratin (0.5 μM), SAHA (2.5 μM), TNFα (1 ng/μl), or control at the indicated concentrations for 18 h, followed by flow cytometry analysis. […] Results represent average of two independent experiments. All treatments in (A) and (B) on the X axis are in μM.

[2] = tested on: latent LTR-Tat-IRES-GFP construct in J-Lat A2 cells; experiment: J-Lat A2 cells (LTR-Tat-IRES-GFP), flow cytometry of GFP; format: cell-based, HIV-1; conditions: 18 h
Protocol: (§1) HEK293T and Jurkat cells were obtained from the American Type Culture Collection. J-Lat (clones A2 and A72) cell lines were described. HEK293T cells were cultured in DMEM supplemented with 10% FBS, 1% L-glutamine and 1% penicillin-streptomycin (Life Technologies). Jurkat and J-Lat cells were cultured in RPMI supplemented with 10% FBS, 1% L-glutamine, and 1% penicillin-streptomycin. TNFα (Sigma-Aldrich) was used at concentrations of 0.25 or 1 ng/ml. Human αCD3 and αCD28 (BD Biosciences) were used at concentrations of 3 and 1 μg/ml, respectively. Prostratin (Sigma) was used at a suboptimal concentration of 0.5 μM, and SAHA (NCI Chemical Carcinogen Repository, Midwest Research Institute) was used at 2.5 μM.
(§2) To determine if BET inhibition specifically activates Tat-dependent transcription, a J-Lat cell line was utilized that harbored a latent lentiviral construct expressing Tat with GFP from the HIV LTR (clone A2; LTR-Tat-IRES-GFP). […] Stimulation with JQ1 yielded up to ninefold more GFP-expressing cells than control-treated cells, and a 22-fold increase was observed when cells were co-treated with JQ1 and low doses of TNFα (FIG. 21A). […] Here, an up to 22-fold increase in GFP^+ cells resulted from JQ1 treatment alone and a 45-fold increase when TNFα was added with JQ1 (FIG. 21B). Both cell lines were also treated with prostratin and SAHA (FIG. 27).
(§3) Two latent J-Lat cell lines A2 (containing a LTR-Tat-IRES-GFP construct) or A72 (containing a LTR-GFP construct) were treated with JQ1 or (R)-JQ1 in combination with TNFα or control at the indicated concentrations for 18 h, followed by flow cytometry analysis. […] Data represent average (±SD) of three independent experiments. All treatments in (A) and (B) on the X axis are in μM.

[3] = tested on: latent LTR-GFP construct in J-Lat A72 cells; experiment: J-Lat A72 cells (LTR-GFP lacking Tat), flow cytometry of GFP; format: cell-based, HIV-1; conditions: 18 h
Protocol: as §1, §2, §3

[4] = tested on: latent DHIV-GFP, X4 virus in nonpolarized T helper cells; experiment: Primary T-cell model of latency, ex vivo differentiated nonpolarized CD4+ T cells; format: cell-based, HIV-1; conditions: 96 h after compound addition; minor effect only at highest doses
[5] = tested on: latent HIV-1 in Bcl-2-transduced resting CD4+ T cells; format: cell-based; conditions: 24-72 h, average of two donors
[6] = tested on: HIV LTR-luciferase reporter (Tat transactivation); experiment: Tat transactivation of the HIV promoter, LTR-luciferase in Jurkat 1G5-Tat cells; format: cell-based; conditions: 1G5-Tat clonal cell lines
Protocol: Compounds that specifically bind to the bromodomain of PCAF in vitro were tested in an in vivo assay that measures the transactivation of the HIV promoter by Tat. The Jurkat 1G5 cells contain a stably integrated and silent HIV LTR-luciferase reporter construct. These cells were infected with an HIV-based retroviral vector expressing a 101-amino acids Tat (Tat2ex), generating the 1G5-Tat cells. Introduction of Tat protein activates HIV transcription and produces a stable increase in luciferase activity. Clonal cell lines were derived from the original population and have characterized them in terms of luciferase expression and response to Tat inhibitors. Luciferase expression is stable over time in each clone and is inhibited by more than 80% in response to DRB, a known inhibitor of CDK9 kinase activity and Tat transactivation.
Compounds were tested by incubating them at various concentrations ranging from 1.25 to 40 μM on either 1G5 cells, to test for effects on the HIV LTR, or on 1G5-Tat cells to test for effects on Tat-induced HIV transcription. After 24 hr, cells were harvested and processed for luciferase activity measurement.

SMILES	reactivation of HIV-1 (GFP+ cells) [1]	activation of HIV transcription (GFP) [2]	activation of HIV transcription (GFP) [3]	reversal of latency (GFP) [4]	reactivation of latent HIV-1 relative to costimulation with αCD3 and αCD28 antibodies [5]	activation of HIV transcription (GFP) ([2]; listed as I-BET151)	activation of HIV transcription (GFP) ([3]; listed as I-BET151)	inhibition of luciferase expression [6]
Cc1sc2c(c1C)C(c1ccc(Cl)cc1)=N[C@H](CC(=O)OC(C)(C)C)c1nnc(C)n1-2 [(R)-JQ1]	not	inactive and not and did not activate the integrated HIV promoter	did not activate the integrated HIV promoter	–	–	–	–	–
O=C(CCCCCCC(=O)Nc1ccccc1)NO [SAHA, suberoylanilidehydroxamic acid]	–	–	–	resistant to reactivation	–	–	–	–
COC(=O)C[C@@H]1N=C(c2ccc(Cl)cc2)c2c(sc(C)c2C)-n2c(C)nnc21 [MS417, Methyl 2-((6S)-4-(4-chlorophenyl)-2,3,9-trimethyl-6H-thieno[3,2-f][1,2,4]triazolo[4,3-a][1,4]diazepin-6-yl)acetate]	–	effectively activated HIV from latency; also recorded: increased GFP expression	effectively activated HIV from latency; also recorded: increased GFP expression	minor activatory effect	same activation	–	–	–
COc1cc2c(cc1-c1c(C)noc1C)ncc1[nH]c(=O)n([C@H](C)c3ccccn3)c12 [I-Bet151, 7-(3,5-dimethylisoxazol-4-yl)-8-methoxy-1-((R)-1-(pyridin-2-yl)ethyl)-1H-imidazo[4,5-c]quinolin-2(3H)-one]	–	effectively activated HIV from latency	effectively activated HIV from latency	–	same activation	increased GFP expression	increased GFP expression	–
OC[C@H]1O[C@@H](n2cnc3cc(Cl)c(Cl)cc32)[C@H](O)[C@@H]1O [DRB]	–	–	–	–	–	–	–	more than 80%
